From PMC8668026 (ACS infectious diseases, 2021)
In brackets after ≈: the same amount, converted by molar mass. Square brackets hold non-standard residues; d marks the D form. Peptide text beside a SMILES is read from it. * marks the point of attachment. ξ: configuration not given here. ξR = N=C(N)NCCCC(N)C(=O)O; βNA = c1ccc2cc(N*)ccc2c1

Key:
AcrB = AcrB (Escherichia coli, UniProt P31224); conditions: read-out: KD AcrB; SPR; ref [38] and [47]; cited from earlier work
E. coli BW25113 (WT) = assay: MIC, 2-fold broth dilution, E. coli WT; assay type: cell-based, Escherichia coli; conditions: for MIC: Escherichia coli, BW25113, read-out: MIC WT
E. coli WT-pore = assay: MIC, 2-fold broth dilution, hyperporinated WT-pore; assay type: cell-based, Escherichia coli; conditions: for MIC: Escherichia coli, read-out: MIC WT-pore
E. coli ΔtolC = assay: MIC, 2-fold broth dilution, efflux-deficient ΔtolC; assay type: cell-based, Escherichia coli; conditions: average of two replicates
E. coli ΔtolC-pore = assay: MIC, 2-fold broth dilution, ΔtolC-pore; assay type: cell-based, Escherichia coli; conditions: average of two replicates
E. cloacae ATCC13047 [1] = assay: MIC in E. cloacae; assay type: cell-based, Enterobacter cloacae
K. pneumoniae ATCC13883 [2] = assay: MIC in K. pneumoniae; assay type: cell-based, Klebsiella pneumoniae
AcrA [3] = molecular target: T1, AcrA (Escherichia coli, UniProt P0AE06); conditions: read-out: KD AcrA; SPR; ref [38] and [47]; cited from earlier work
E. coli WT-pore cells = assay: Checkerboard potentiation of novobiocin/erythromycin; assay type: cell-based, Escherichia coli
A549 cells = assay: MTS cytotoxicity assay; assay type: cell-based, human; conditions: average of two replicates
E. cloacae ATCC13047 [4] = assay: Potentiation of NOV, ERY, CIP in E. cloacae; assay type: cell-based, Enterobacter cloacae
K. pneumoniae ATCC13883 [5] = assay: Potentiation of NOV, ERY, CIP in K. pneumoniae; assay type: cell-based, Klebsiella pneumoniae
AcrAB−TolC = AcrAB−TolC (Escherichia coli, UniProt P0AE06+P31224); conditions: steady-state Nile Red accumulation in WT-pore cells with 32 μM vs 0 μM compound
AcrA [6] = molecular target: T1, AcrA; conditions: periplasm of WT-pore cells; trypsin; accumulation of K46-K346 fragment
[7] = Enterobacter cloacae, ATCC13047
[8] = Klebsiella pneumoniae, ATCC13883

T1 sequence (P0AE06 25-397): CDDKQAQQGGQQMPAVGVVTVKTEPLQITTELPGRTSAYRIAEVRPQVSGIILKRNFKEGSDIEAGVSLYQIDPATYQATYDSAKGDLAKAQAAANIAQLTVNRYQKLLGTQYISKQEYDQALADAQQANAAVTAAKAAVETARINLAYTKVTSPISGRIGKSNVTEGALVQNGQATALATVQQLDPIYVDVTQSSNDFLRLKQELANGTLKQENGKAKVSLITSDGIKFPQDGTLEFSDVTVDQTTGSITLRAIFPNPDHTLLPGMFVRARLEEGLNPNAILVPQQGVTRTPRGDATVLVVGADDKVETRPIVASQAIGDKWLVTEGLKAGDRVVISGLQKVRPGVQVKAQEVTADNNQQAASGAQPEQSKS
AcrB, sequence (P31224 whole entry): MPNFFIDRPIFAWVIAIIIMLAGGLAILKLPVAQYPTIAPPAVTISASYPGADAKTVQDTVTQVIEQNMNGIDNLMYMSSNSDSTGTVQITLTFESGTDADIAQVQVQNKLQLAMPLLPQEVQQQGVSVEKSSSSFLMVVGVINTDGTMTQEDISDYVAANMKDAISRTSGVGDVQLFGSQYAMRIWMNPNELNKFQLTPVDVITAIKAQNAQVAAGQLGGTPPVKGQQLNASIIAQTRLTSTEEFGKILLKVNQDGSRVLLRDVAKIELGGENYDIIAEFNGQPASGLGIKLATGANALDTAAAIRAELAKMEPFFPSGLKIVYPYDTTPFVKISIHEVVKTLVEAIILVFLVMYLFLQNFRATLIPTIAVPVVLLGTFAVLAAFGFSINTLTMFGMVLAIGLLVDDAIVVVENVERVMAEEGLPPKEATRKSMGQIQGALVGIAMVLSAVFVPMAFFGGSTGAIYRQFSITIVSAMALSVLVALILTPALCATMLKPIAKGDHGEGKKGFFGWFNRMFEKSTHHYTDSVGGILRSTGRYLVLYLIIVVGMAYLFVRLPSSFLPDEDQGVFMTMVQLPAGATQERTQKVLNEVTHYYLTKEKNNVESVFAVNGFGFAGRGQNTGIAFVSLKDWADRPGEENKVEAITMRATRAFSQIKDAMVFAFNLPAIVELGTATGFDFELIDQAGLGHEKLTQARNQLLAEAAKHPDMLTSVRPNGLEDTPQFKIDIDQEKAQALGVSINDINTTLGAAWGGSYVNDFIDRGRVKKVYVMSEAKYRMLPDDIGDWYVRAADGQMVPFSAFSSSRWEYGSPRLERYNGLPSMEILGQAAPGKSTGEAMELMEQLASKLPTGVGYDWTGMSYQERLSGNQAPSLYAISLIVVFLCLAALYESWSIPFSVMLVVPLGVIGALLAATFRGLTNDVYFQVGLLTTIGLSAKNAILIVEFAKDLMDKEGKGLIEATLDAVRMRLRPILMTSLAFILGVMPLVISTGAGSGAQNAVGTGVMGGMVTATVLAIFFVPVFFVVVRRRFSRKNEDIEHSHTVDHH
AcrAB−TolC, sequence (P31224 whole entry, the tested form may be a part): as the sequence (P31224 whole entry) above
AcrAB−TolC, sequence (P0AE06 25-397): as the sequence (P0AE06 25-397) above
AcrAB−TolC, sequence (P02930 23-493, further chain): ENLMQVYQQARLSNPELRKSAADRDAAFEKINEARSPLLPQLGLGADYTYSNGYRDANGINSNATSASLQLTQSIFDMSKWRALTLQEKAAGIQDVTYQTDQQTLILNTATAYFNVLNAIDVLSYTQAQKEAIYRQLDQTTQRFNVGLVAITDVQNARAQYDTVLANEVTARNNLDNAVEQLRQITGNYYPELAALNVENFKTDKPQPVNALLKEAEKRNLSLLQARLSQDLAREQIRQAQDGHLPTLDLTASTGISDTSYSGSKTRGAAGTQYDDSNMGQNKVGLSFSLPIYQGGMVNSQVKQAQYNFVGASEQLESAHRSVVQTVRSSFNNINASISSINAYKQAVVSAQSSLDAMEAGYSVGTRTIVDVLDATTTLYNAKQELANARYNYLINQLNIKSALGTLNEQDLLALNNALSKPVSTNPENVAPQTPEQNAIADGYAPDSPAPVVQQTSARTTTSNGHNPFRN

For `NC(N)=NCCCC(NC(=O)[C@@H](N)Cc1ccccc1)C(=O)Nc1ccc2ccccc2c1` (stereo partly shown) [MC] (H-Phe-[ξR]-βNA), the Kd (AcrB) is listed as 110 µM.
In the case of `CO[C@@H]1[C@@H](OC(N)=O)[C@@H](O)[C@H](Oc2ccc3c(O)c(NC(=O)c4ccc(O)c(CC=C(C)C)c4)c(=O)oc3c2C)OC1(C)C` [NOV, novobiocin], the MIC (E. coli BW25113 (WT)) is reported as 128 µM (≈ 78.4 µg/mL), the MIC (E. coli WT-pore) is reported as 32 to 64 µM (≈ 19.6 to 39.2 µg/mL) and the “MIC ΔtolC” value (E. coli ΔtolC) is reported as 0.5 µM (≈ 0.306 µg/mL). The “MIC ΔtolC-pore” value (E. coli ΔtolC-pore) was 0.125 µM (≈ 0.0766 µg/mL), the MIC (E. cloacae ATCC13047 [1]; [7]) was 400 µg/mL and the MIC (K. pneumoniae ATCC13883 [2]; [8]) was 50 µg/mL. For the same molecule, the Kd (AcrA [3]) was 40 µM.
In the case of `Cc1cc(N)c2cc(NC(=O)/C=C/c3ccccc3Cl)ccc2n1` [Compound 2], the “MIC WT” value (E. coli BW25113 (WT); E. coli WT, average of two replicates) is reported as 200 µM (≈ 67.6 µg/mL), the “MIC WT-pore” value (E. coli WT-pore; E. coli hyperporinated WT-pore, average of two replicates) is reported as 100 µM (≈ 33.8 µg/mL) and the “MIC ΔtolC” value (E. coli ΔtolC) is reported as 12.5 µM (≈ 4.22 µg/mL). For the same molecule, the “MIC ΔtolC-pore” value (E. coli ΔtolC-pore) was 12.5 µM (≈ 4.22 µg/mL), the “potentiation MPC4 (ERY)” value (E. coli WT-pore cells; minimum concentration reducing MIC of erythromycin 4-fold) was 3.1 µM and the “potentiation MPC4 (NOV)” value (E. coli WT-pore cells; minimum concentration reducing MIC of novobiocin 4-fold) was 1.56 µM. For the same molecule, the CC50 (A549 cells) was 10 µM, the MIC (E. cloacae ATCC13047 [1]; E. cloacae ATCC13047, test compounds, average of two replicates) was over 100 µM and the “fold MIC (CIP)” value (E. cloacae ATCC13047 [4]) was 1. For the same molecule, the “fold MIC (ERY)” value (E. cloacae ATCC13047 [4]) was 8, the “fold MIC (NOV)” value (E. cloacae ATCC13047 [4]) was 64 and the MIC (K. pneumoniae ATCC13883 [2]; K. pneumoniae ATCC13883, test compounds, average of two replicates) was over 100 µM. The “fold MIC (NOV)” value (K. pneumoniae ATCC13883 [5]) was 64, the “efflux inhibition, SS ratio 32 μM/0 μM” value (AcrAB−TolC) was 6.5 and the “effect on proteolytic profile of AcrA” value (AcrA [6]) was “did not affect the proteolytic profiles of AcrA”.
For `CC[C@H]1OC(=O)[C@H](C)[C@@H](O[C@H]2C[C@@](C)(OC)[C@@H](O)[C@H](C)O2)[C@H](C)[C@@H](O[C@@H]2O[C@H](C)C[C@H](N(C)C)[C@H]2O)[C@](C)(O)C[C@@H](C)C(=O)[C@H](C)[C@@H](O)[C@]1(C)O` [ERY, erythromycin], the MIC (E. coli BW25113 (WT)) was 64 µM (≈ 47 µg/mL), the MIC (E. coli WT-pore) was 4 to 8 µM (≈ 2.94 to 5.87 µg/mL) and the “MIC ΔtolC” value (E. coli ΔtolC) was 2 µM (≈ 1.47 µg/mL). The MIC (E. cloacae ATCC13047 [1]; [7]) was 400 µg/mL and the MIC (K. pneumoniae ATCC13883 [2]; [8]) was 400 µg/mL.
